Measurements: patent publication US20030109443A1, “Diagnosing, treating, and preventing cancer using cables” (priority 2001, published 2003)

Key:
[1] = target: cdk2 (UniProt P24941); test: cell-based or functional assay
[2] = test system: Cables mRNA levels in Ishikawa cells; test: Cables mRNA after hormone treatment, Ishikawa cells; assay type: cell-based; conditions: vs untreated controls
Protocol: (§1) Cell lines have been used to investigate the effect of hormonal regulation on Cables expression, as well as the effect of Cables overexpression on these cells. We have isolated RNA and protein from HES, Ishikawa, and SK-UT2 endometrial cells lines for analysis. The influence of progesterone and estrogen on Cables expression was evaluated in these cells. […] Western analysis confirmed that a protein product was present. Conversely, estrogen reduced the levels of Cables mRNA expression in these cell lines (FIG. 16A). There is was no hormonal effect on Cables mRNA expression in SK-UT2 cells, which are derived from a G3 human uterine cancer (FIGS. 15B and 16B).

[3] = test system: Cables mRNA levels in HES cells; test: Northern analysis of Cables mRNA after hormone treatment, HES cells; assay type: cell-based, human; conditions: vs untreated controls
From the text: FIGS. 15A and 15B are images showing northern analysis of Cables mRNA levels in HES cells (FIG. 15A) and SK-UT2 cells (FIG. 15B) following progesterone treatment.
FIGS. 16A and 16B are images showing northern analysis of Cables mRNA levels in HES cells (FIG. 16A) and SK-UT2 cells (FIG. 16B) following progesterone or estrogen treatment.
as §1

Sequence of Cables (full length, expressed from a transfected construct) (Q9ESJ1 whole entry): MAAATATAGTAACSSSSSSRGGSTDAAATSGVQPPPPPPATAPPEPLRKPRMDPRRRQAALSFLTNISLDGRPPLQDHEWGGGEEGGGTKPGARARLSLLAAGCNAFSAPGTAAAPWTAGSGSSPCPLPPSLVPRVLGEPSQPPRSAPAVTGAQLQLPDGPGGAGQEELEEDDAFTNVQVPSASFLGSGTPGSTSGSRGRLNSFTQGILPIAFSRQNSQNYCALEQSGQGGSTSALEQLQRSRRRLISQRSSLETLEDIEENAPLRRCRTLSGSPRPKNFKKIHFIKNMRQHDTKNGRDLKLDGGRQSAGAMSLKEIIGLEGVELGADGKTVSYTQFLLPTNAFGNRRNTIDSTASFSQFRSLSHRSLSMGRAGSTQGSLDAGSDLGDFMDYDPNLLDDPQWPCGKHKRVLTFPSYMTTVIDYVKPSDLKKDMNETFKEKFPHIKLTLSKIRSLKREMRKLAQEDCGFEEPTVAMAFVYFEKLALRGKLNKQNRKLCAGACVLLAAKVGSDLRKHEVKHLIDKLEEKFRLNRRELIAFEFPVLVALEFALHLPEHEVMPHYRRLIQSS
Sequence of Wee1 (P30291 whole entry): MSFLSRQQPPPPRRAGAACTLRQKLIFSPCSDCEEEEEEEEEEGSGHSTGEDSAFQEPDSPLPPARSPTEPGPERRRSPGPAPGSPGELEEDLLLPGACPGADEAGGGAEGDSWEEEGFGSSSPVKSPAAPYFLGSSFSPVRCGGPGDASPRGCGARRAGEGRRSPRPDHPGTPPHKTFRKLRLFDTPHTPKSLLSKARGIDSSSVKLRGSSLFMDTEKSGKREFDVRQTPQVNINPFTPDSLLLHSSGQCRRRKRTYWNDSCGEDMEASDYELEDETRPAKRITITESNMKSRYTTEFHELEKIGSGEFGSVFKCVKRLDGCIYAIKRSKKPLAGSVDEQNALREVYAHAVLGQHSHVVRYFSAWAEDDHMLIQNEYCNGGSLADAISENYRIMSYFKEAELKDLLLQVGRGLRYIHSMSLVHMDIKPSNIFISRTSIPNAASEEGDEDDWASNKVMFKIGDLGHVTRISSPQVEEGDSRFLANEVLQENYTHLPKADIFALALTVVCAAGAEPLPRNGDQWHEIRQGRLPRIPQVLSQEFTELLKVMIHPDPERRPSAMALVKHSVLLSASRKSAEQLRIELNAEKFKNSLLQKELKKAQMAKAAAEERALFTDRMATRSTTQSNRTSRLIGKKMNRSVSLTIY

Row | Y15-phosphorylated cdk2 in stable Cables cell lines against control cell lines (cdk2 immunoprecipitation, phospho-Tyr15 antibody) [1] [fold] | level of tyrosine phosphorylation of cdk2 (cdk2 immunoprecipitation, antiphosphotyrosine western blot, COS7 cells coexpressing Cables and Wee1) (times basal level) [1] | Molecule | Cables mRNA levels [2] | Cables mRNA levels [3]
1 | 5 | – | Cables (full length, expressed from a transfected construct) | – | –
2 | – | 30 | Wee1 (from UniProt P30291 1-646) (enzyme) | – | –
3 | – | – | estrogen | reduced | reduced
4 | – | – | CC(=O)[C@H]1CC[C@H]2[C@@H]3CCC4=CC(=O)CC[C@]4(C)[C@H]3CC[C@]12C [Progestin, progesterone] | dose dependent elevation | dose dependent elevation
